Measurements: ChEMBL document CHEMBL5338823, “Discovery of Novel 5,6-Dihydro-1,2,4-triazine Derivatives as Efficacious Glucagon-Like Peptide-1 Receptor Agonists” (J Med Chem, 2023)

Experiments:
[1] = biological target: Glucagon-like peptide 1 receptor (Homo sapiens, UniProt P43220); experiment: Agonist activity at N-terminal HA-tagged human GLP-1R expressed in HEK293 cells assessed as effect on intracellular cAMP accumulation incubated for 30 mins by LANCA ultra cAMP assay; format: functional, cell-based
[2] = biological target: T1, hERG (KCNH2) (Homo sapiens, UniProt Q12809); experiment: Inhibition of hERG at 3 uM relative to control
[3] = Stability in human liver microsomes assessed as half-life at 1 uM measured upto 60 mins in the presence of NADPH by LC-MS/MS analysis; format: ADME, Microsome
[4] = Stability in rat liver microsomes assessed as half-life at 1 uM measured upto 60 mins in the presence of NADPH by LC-MS/MS analysis; format: ADME, Microsome
[5] = Stability in mouse liver microsomes assessed as half-life at 1 uM measured upto 60 mins in the presence of NADPH by LC-MS/MS analysis; format: ADME, Microsome
[6] = Stability in human liver microsomes assessed as intrinsic clearance at 1 uM measured upto 60 mins in the presence of NADPH by LC-MS/MS analysis; format: ADME, Microsome; conditions: 1 h
[7] = Stability in rat liver microsomes assessed as intrinsic clearance at 1 uM measured upto 60 mins in the presence of NADPH by LC-MS/MS analysis; format: ADME, Microsome; conditions: 1 h
[8] = Stability in mouse liver microsomes assessed as intrinsic clearance at 1 uM measured upto 60 mins in the presence of NADPH by LC-MS/MS analysis; format: ADME, Microsome; conditions: 1 h
[9] = biological target: T1, hERG (KCNH2); experiment: Inhibition of hERG at 40 uM relative to control
[10] = biological target: Voltage-gated inwardly rectifying potassium channel KCNH2 (Homo sapiens, UniProt Q12809); experiment: Inhibition of hERG
[11] = Drug concentration in C57BL/6J mouse plasma at 5 mg/kg, po measured after 1 hrs by LC-MS/MS analysis; format: ADME, organism-based
[12] = Drug concentration in C57BL/6J mouse plasma at 5 mg/kg, po measured after 4 hrs by LC-MS/MS analysis; format: ADME, organism-based
[13] = Apparent permeability across apical to basolateral side in human Caco-2 cells at 10 uM measured after 95 mins by LC-MS/MS analysis; format: ADME, cell-based

Glucagon-like peptide 1 receptor, sequence (P43220 whole entry): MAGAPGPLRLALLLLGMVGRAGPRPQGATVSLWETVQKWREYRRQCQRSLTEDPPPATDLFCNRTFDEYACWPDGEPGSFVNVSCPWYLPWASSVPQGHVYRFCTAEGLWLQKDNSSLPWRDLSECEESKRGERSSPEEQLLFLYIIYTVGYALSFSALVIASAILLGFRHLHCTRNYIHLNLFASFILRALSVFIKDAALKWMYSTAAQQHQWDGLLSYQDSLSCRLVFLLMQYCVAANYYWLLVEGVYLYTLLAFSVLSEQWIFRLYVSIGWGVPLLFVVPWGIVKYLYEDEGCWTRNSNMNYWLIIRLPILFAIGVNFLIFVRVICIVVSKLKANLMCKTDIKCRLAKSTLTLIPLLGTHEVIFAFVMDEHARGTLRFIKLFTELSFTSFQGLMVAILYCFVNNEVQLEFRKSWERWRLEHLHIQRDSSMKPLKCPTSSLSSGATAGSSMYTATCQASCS
T1 sequence (Q12809 whole entry): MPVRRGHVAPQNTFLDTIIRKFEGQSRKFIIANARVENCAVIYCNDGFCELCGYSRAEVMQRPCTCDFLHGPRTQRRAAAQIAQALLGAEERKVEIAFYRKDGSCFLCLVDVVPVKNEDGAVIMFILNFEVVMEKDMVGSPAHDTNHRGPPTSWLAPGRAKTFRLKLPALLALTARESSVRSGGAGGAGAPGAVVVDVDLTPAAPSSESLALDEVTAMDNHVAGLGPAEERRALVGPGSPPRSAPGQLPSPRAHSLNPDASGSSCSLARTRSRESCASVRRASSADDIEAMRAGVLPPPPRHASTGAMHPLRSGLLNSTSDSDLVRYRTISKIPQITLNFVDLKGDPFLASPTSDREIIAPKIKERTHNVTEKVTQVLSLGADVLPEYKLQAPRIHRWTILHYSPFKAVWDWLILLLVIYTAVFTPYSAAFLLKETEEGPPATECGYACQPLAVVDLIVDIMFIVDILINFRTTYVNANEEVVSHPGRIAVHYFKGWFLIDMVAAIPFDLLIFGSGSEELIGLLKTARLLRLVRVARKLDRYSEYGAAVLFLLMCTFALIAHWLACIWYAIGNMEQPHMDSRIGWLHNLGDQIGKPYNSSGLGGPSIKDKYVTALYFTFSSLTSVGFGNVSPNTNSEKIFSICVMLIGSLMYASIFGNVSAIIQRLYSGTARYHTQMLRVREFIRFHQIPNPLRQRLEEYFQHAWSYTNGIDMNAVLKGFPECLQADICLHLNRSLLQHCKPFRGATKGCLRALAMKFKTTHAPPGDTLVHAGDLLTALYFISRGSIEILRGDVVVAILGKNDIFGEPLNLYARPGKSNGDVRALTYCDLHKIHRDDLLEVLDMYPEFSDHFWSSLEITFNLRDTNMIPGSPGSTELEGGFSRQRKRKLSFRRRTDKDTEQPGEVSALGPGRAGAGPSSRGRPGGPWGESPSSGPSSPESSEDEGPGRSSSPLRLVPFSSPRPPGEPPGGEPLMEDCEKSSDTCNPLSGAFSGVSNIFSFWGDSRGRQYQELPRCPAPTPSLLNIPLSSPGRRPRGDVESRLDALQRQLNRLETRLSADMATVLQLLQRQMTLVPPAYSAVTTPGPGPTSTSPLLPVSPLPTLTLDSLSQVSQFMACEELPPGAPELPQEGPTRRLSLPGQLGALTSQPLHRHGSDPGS
Voltage-gated inwardly rectifying potassium channel KCNH2, sequence (Q12809 whole entry): as above

Row | Compound | EC50 [1] | half-life at 1 µM [3] | half-life at 1 µM [4] | half-life at 1 µM [5] | CLH [6] | CLH [7] | CLH [8] | also measured
1 | CC1CN(c2cccc(OCc3ccc(C#N)cc3F)n2)C=NN1Cc1nc2ccc(C(=O)O)cc2n1C[C@@H]1CCO1 (stereo not given in full) | 0.0006 µM |  |  |  |  |  |  | 
2 | COc1cc(N)c(Cl)cc1C(=O)N[C@H]1CCN(CCCOc2ccc(F)cc2)C[C@H]1OC [REL-CISAPRIDE] |  |  |  |  |  |  |  | inhibition at 3 µM [2]: 92%
3 | N#Cc1ccc(COc2cccc(N3CCC4(CN(Cc5nc6ccc(C(=O)O)cc6n5C[C@@H]5CCO5)C4)C3)n2)c(F)c1 | 5.01 µM |  |  |  |  |  |  | 
4 | N#Cc1ccc(COc2cccc(N3CC4(CC3=O)CN(Cc3nc5ccc(C(=O)O)cc5n3C[C@@H]3CCO3)C4)n2)c(F)c1 | > 10 µM |  |  |  |  |  |  | 
5 | N#Cc1ccc(COc2cccc(OC3CCN(Cc4nc5ccc(C(=O)O)cc5n4C[C@@H]4CCO4)CC3)n2)c(F)c1 | 0.0007 µM |  |  |  |  |  |  | 

Further lines, with some results ahead:

Row | EC50 [1] | half-life at 1 µM [3] | half-life at 1 µM [4] | half-life at 1 µM [5] | CLH [6] | CLH [7] | CLH [8] | Compound | also measured
6 |  | 2.77 h | 1.58 h | 1.72 h | 13 mL/min/g | 22 mL/min/g | 21 mL/min/g | O=C(O)c1cc(F)c2nc(CN3CCN(c4cccc(OCc5ccc(Cl)c6cc(F)oc56)n4)C=N3)n(C[C@@H]3CCO3)c2c1 | 
7 |  | 2.48 h | 1.05 h | 2.07 h | 14 mL/min/g | 33 mL/min/g | 17 mL/min/g | N#Cc1ccc(COc2cccc(N3C=NN(Cc4nc5c(F)cc(C(=O)O)cc5n4C[C@@H]4CCO4)CC3)n2)c2occc12 | inhibition at 40 µM [9]: 30%; IC50 [10]: > 40 µM
8 |  | 5.45 h | 2.23 h | 3.03 h | 6 mL/min/g | 16 mL/min/g | 12 mL/min/g | COc1cc(C#N)ccc1COc1cccc(N2C=NN(Cc3nc4c(F)cc(C(=O)O)cc4n3C[C@@H]3CCO3)CC2)n1 | inhibition at 40 µM [9]: 50%; IC50 [10]: > 40 µM; concentration at 1 h [11]: 12 ng/mL; concentration at 4 h [12]: 3 ng/mL; Papp A→B at 1.583 h, 10 µM [13]: 0.19 ×10⁻⁶ cm/s
